Results reported in PubChem BioAssay (NCI).
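Test compounds were applied to cells in 96-well plates for 48 hours at 5 doses. Definition used: TGI = concentration required for complete inhibition of growth.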

Experiments:
Assay in all cases: growth of human tumour cells (NCI), 48 h
[1] = test system: A549 NSCLC
[2] = test system: NCI-H460 lung
[3] = test system: MDA-MB-231 breast
[4] = test system: HOP-62 NSCLC
[5] = test system: LOX IMVI melanoma
[6] = test system: DU-145 prostate
[7] = test system: ACHN renal
[8] = test system: SNB-19 CNS
[9] = test system: SK-MEL-28 melanoma
[10] = test system: IGROV1 ovarian
[11] = test system: HCC-2998 colon
[12] = test system: SK-OV-3 ovarian
[13] = test system: OVCAR-3 ovarian
[14] = test system: SF-268 CNS
[15] = test system: KM12 colon
[16] = test system: HCT-116 colon
[17] = test system: NCI-H23 lung
[18] = test system: TK-10 renal
[19] = test system: MOLT-4 leukemia
[20] = test system: MDA-MB-435
[21] = test system: SW-620 colon
[22] = test system: SK-MEL-2 melanoma
[23] = test system: SK-MEL-5 melanoma
[24] = test system: SF-539 CNS
[25] = test system: MALME-3M melanoma
[26] = test system: PC-3 prostate
[27] = test system: HCT-15 colon
[28] = test system: HS 578T breast
[29] = test system: MCF7 breast
[30] = test system: MDA-N
[31] = test system: COLO 205 colon
[32] = test system: NCI-H226 lung
[33] = test system: M14 melanoma
[34] = test system: NCI-H522 lung
[35] = test system: NCI/ADR-RES ovarian
[36] = test system: A498 renal
[37] = test system: HL-60(TB) leukemia
[38] = test system: OVCAR-4 ovarian
[39] = test system: SNB-75 CNS
[40] = test system: SN12C renal
[41] = test system: OVCAR-8 ovarian
[42] = test system: UACC-62 melanoma
[43] = test system: HOP-92 NSCLC
[44] = test system: SF-295 CNS
[45] = test system: BT-549 breast
[46] = test system: T-47D breast
[47] = test system: CAKI-1 renal
[48] = test system: U251 CNS
[49] = test system: UACC-257 melanoma
[50] = test system: HT29 colon
[51] = test system: 786-0 renal
[52] = test system: RXF 393 renal
[53] = test system: EKVX NSCLC
[54] = test system: K-562 leukemia
[55] = test system: OVCAR-5 ovarian
[56] = test system: UO-31 renal
[57] = test system: RPMI-8226 leukemia

OCCOCn1nncc1Cn1ncc2c(SCc3ccccc3)ncnc21
TGI [1]: > 100 µM | TGI [2]: > 100 µM | TGI [3]: > 100 µM | TGI [4]: > 100 µM | TGI [5]: > 100 µM | TGI [6]: > 100 µM | TGI [7]: > 100 µM | TGI [8]: > 100 µM | TGI [9]: > 100 µM | TGI [10]: > 100 µM | TGI [11]: > 100 µM | TGI [12]: > 100 µM | TGI [13]: > 100 µM | TGI [14]: > 100 µM | TGI [15]: > 100 µM | TGI [16]: > 100 µM | TGI [17]: > 100 µM | TGI [18]: > 100 µM | TGI [19]: 34 µM | TGI [20]: > 100 µM | TGI [21]: > 100 µM | TGI [22]: > 100 µM | TGI [23]: > 100 µM | TGI [24]: > 100 µM | TGI [25]: > 100 µM | TGI [26]: > 100 µM | TGI [27]: > 100 µM | TGI [28]: > 100 µM | TGI [29]: > 100 µM | TGI [30]: > 100 µM | TGI [31]: > 100 µM | TGI [32]: > 100 µM | TGI [33]: > 100 µM | TGI [34]: > 100 µM | TGI [35]: > 100 µM | TGI [36]: > 100 µM | TGI [37]: 53.5 µM | TGI [38]: > 100 µM | TGI [39]: > 100 µM | TGI [40]: > 100 µM | TGI [41]: > 100 µM | TGI [42]: > 100 µM | TGI [43]: > 100 µM | TGI [44]: > 100 µM | TGI [45]: > 100 µM | TGI [46]: > 100 µM | TGI [47]: > 100 µM | TGI [48]: > 100 µM | TGI [49]: > 100 µM | TGI [50]: > 100 µM | TGI [51]: > 100 µM | TGI [52]: > 100 µM | TGI [53]: > 100 µM | TGI [54]: > 100 µM | TGI [55]: > 100 µM | TGI [56]: > 100 µM

O=c1cc(-c2ccncc2)[nH]c2cc3c(cc12)OCO3
TGI [1]: > 100 µM | TGI [2]: > 100 µM | TGI [3]: > 100 µM | TGI [4]: > 100 µM | TGI [6]: > 100 µM | TGI [7]: > 100 µM | TGI [8]: > 100 µM | TGI [9]: > 100 µM | TGI [10]: > 100 µM | TGI [11]: > 100 µM | TGI [12]: > 100 µM | TGI [13]: > 100 µM | TGI [14]: > 100 µM | TGI [15]: > 100 µM | TGI [16]: > 100 µM | TGI [17]: > 100 µM | TGI [18]: > 100 µM | TGI [19]: > 100 µM | TGI [20]: > 100 µM | TGI [21]: > 100 µM | TGI [22]: > 100 µM | TGI [23]: > 100 µM | TGI [24]: > 100 µM | TGI [27]: > 100 µM | TGI [28]: > 100 µM | TGI [29]: > 100 µM | TGI [30]: > 100 µM | TGI [31]: > 100 µM | TGI [32]: > 100 µM | TGI [57]: > 100 µM | TGI [33]: > 100 µM | TGI [35]: > 100 µM | TGI [36]: > 100 µM | TGI [38]: > 100 µM | TGI [39]: > 100 µM | TGI [40]: > 100 µM | TGI [41]: > 100 µM | TGI [42]: > 100 µM | TGI [43]: > 100 µM | TGI [44]: > 100 µM | TGI [46]: > 100 µM | TGI [48]: > 100 µM | TGI [49]: > 100 µM | TGI [50]: > 100 µM | TGI [51]: > 100 µM | TGI [52]: > 100 µM | TGI [53]: > 100 µM | TGI [55]: > 100 µM | TGI [56]: > 100 µM
